From patent US20200131196A1 (Mount Tam Therapeutics, Inc., priority 2017, published 2020)
Like-named read-outs stand apart in the source and are kept apart here.

Assays:
DMS114 = test: OncoPanel cell proliferation assay, DMS114; format: cell-based, human
Procedure: (§1) Cells were seeded into 384-well plates and incubated in a humidified atmosphere of 5% CO2 at 37° C. Compounds were added the day following cell seeding. At the same time, a time zero untreated cell plate was generated. After a 3-day incubation period, cells were fixed and stained to allow fluorescence imaging of nuclei. Compounds (1 mM stock solutions) were serially diluted in half-log steps from the highest test concentration ([…]), and assayed over 10 concentrations with a maximum assay concentration of 0.1% DMSO. Automated fluorescence microscopy was carried out using a Molecular Devices ImageXpress Micro XL high-content imager, and images were collected with a 4× objective. 16-bit TIFF images were acquired and analyzed with MetaXpress 5.1.0.41 software.
(§2) Cell proliferation was measured by the fluorescence intensity of an incorporated nuclear dye. The output is referred to as the relative cell count, where the measured nuclear intensity is transformed to percent of control (POC) using the following formula: […]
(§3) Cellular response parameters were calculated using nonlinear regression to a sigmoidal single-site dose response model:
GI50 is the concentration needed to reduce the observed growth by half (midway between the curve maximum and the time zero value). […] In rare instances, values <0 or >10 may be observed. […] Curve-fitting, calculations, and report generation was performed using a custom data reduction engine and MathIQ based software (AIM).

NCIH446 = test: OncoPanel cell proliferation assay, NCIH446; format: cell-based, human
Procedure: as §1, with “Cells were grown in RPMI 1640, 10% FBS, 2 mM L-alanyl-L-glutamine, 1 mM Na pyruvate, or a special medium. Cells” for “Cells”
as §2, §3
(§4) EC50 is the test compound concentration at the curve inflection point or half the effective response (parameter C of the fitted curve solution). GI50 is the concentration needed to reduce the observed growth by half (midway between the curve maximum and the time zero value). “Cell Count Activity Area” is an estimate of the integrated area above the curve (Barretina, et al. The Cancer Cell Line Encyclopedia enables predictive modelling of anticancer drug sensitivity. Nature 483: 603-607). […] In rare instances, values <0 or >10 may be observed. […] Curve-fitting, calculations, and report generation was performed using a custom data reduction engine and MathIQ based software (AIM).

SCaBER = test: OncoPanel cell proliferation assay, SCaBER; format: cell-based, human
Procedure: as §1, with “Cells were grown in RPMI 1640, 10% FBS, 2 mM L-alanyl-L-glutamine, 1 mM Na pyruvate, or a special medium. Cells” for “Cells”
as §2, §3, §4

G-402 = test: OncoPanel cell proliferation assay, G-402; format: cell-based, human
Procedure: as §1, with “Cells were grown in RPMI 1640, 10% FBS, 2 mM L-alanyl-L-glutamine, 1 mM Na pyruvate, or a special medium. Cells” for “Cells”
as §2, §3, §4

RL95-2 = test: OncoPanel cell proliferation assay, RL95-2; format: cell-based, human
Procedure: as §1, with “Cells were grown in RPMI 1640, 10% FBS, 2 mM L-alanyl-L-glutamine, 1 mM Na pyruvate, or a special medium. Cells” for “Cells”
as §2, §3, §4

SK-UT-1 = test: OncoPanel cell proliferation assay, SK-UT-1
Procedure: Cells were seeded into 384-well plates and incubated in a humidified atmosphere of 5% CO2 at 37° C. Compounds were added the day following cell seeding. At the same time, a time zero untreated cell plate was generated. After a 3-day incubation period, cells were fixed and stained to allow fluorescence imaging of nuclei. Compounds (1 mM stock solutions) were serially diluted in half-log steps from the highest test concentration (1 micromol), and assayed over 10 concentrations with a maximum assay concentration of 0.1% DMSO. Automated fluorescence microscopy was carried out using a Molecular Devices ImageXpress Micro XL high-content imager, and images were collected with a 4× objective. 16-bit TIFF images were acquired and analyzed with MetaXpress 5.1.0.41 software.

[1] = Homo sapiens, read-out: Cell Count EC50
[2] = Homo sapiens, read-out: Cell Count GI50
[3] = Homo sapiens, read-out: Cell Count IC50

CO[C@H]1C[C@@H]2CC[C@@H](C)[C@@](O)(O2)C(=O)C(=O)N2CCCC[C@H]2C(=O)O[C@H]([C@H](C)C[C@H]2C[C@H]3C[C@@H]2C[C@@H]3O)CC(=O)[C@H](C)/C=C(\C)[C@@H](O)[C@@H](OC)C(=O)[C@H](C)C[C@H](C)/C=C/C=C/C=C/1C [Formula II, C37-[(1R,2S,4R,5S)-5-hyhroxybicyclo[2.2.1]heptane] rapamycin]
Cell Count Activity Area (DMS114): 3.40
Relative cell count (%) Mean (DMS114; 1.00E+00 microM): 43.1%
Relative cell count (%) Mean (DMS114; 1.00E-01 microM): 50.1%
Relative cell count (%) Mean (DMS114; 1.00E-02 microM): 62.2%
Relative cell count (%) Mean (DMS114; 1.00E-03 microM): 74.7%
Relative cell count (%) Mean (DMS114; 1.01E-04 microM): 102.9%
Relative cell count (%) Mean (DMS114; 3.16E-01 microM): 46.7%
Relative cell count (%) Mean (DMS114; 3.17E-02 microM): 52.5%
Relative cell count (%) Mean (DMS114; 3.17E-03 microM): 63.9%
Relative cell count (%) Mean (DMS114; 3.18E-04 microM): 83.4%
Relative cell count (%) Mean (DMS114; 3.18E-05 microM): 99.7%
EC50 (DMS114; Homo sapiens, DMS-114, read-out: Cell Count EC50): 1.34 nM
GI50 (DMS114; Homo sapiens, DMS-114, read-out: Cell Count GI50): 0.611 nM
IC50 (DMS114; Homo sapiens, DMS-114, read-out: Cell Count IC50): 33.1 nM
Cell Count Activity Area (NCIH446): 1.23
Relative cell count (%) Mean (NCIH446; 1.00E+00 microM): 80.9%
Relative cell count (%) Mean (NCIH446; 1.00E-01 microM): 83.6%
Relative cell count (%) Mean (NCIH446; 1.00E-02 microM): 83.2%
Relative cell count (%) Mean (NCIH446; 1.00E-03 microM): 93.7%
Relative cell count (%) Mean (NCIH446; 1.01E-04 microM): 102.5%
Relative cell count (%) Mean (NCIH446; 3.16E-01 microM): 74.9%
Relative cell count (%) Mean (NCIH446; 3.17E-02 microM): 83.3%
Relative cell count (%) Mean (NCIH446; 3.17E-03 microM): 85.8%
Relative cell count (%) Mean (NCIH446; 3.18E-04 microM): 87.3%
Relative cell count (%) Mean (NCIH446; 3.18E-05 microM): 94.2%
EC50 (NCIH446; Homo sapiens, NCI-H446, read-out: Cell Count EC50): > 1000 nM
GI50 (NCIH446; Homo sapiens, NCI-H446, read-out: Cell Count GI50): > 1000 nM
IC50 (NCIH446; Homo sapiens, NCI-H446, read-out: Cell Count IC50): > 1000 nM
Cell Count Activity Area (SCaBER): 4.82
Relative cell count (%) Mean (SCaBER; 1.00E+00 microM): 32.7%
Relative cell count (%) Mean (SCaBER; 1.00E-01 microM): 44.5%
Relative cell count (%) Mean (SCaBER; 1.00E-02 microM): 42.2%
Relative cell count (%) Mean (SCaBER; 1.00E-03 microM): 56.1%
Relative cell count (%) Mean (SCaBER; 1.01E-04 microM): 83.1%
Relative cell count (%) Mean (SCaBER; 3.16E-01 microM): 36.3%
Relative cell count (%) Mean (SCaBER; 3.17E-02 microM): 39.5%
Relative cell count (%) Mean (SCaBER; 3.17E-03 microM): 50.7%
Relative cell count (%) Mean (SCaBER; 3.18E-04 microM): 63.5%
Relative cell count (%) Mean (SCaBER; 3.18E-05 microM): 93.1%
EC50 (SCaBER; Homo sapiens, Bladder, summary Table 5, read-out: EC50): 0.25 nM
EC50 (SCaBER; [1]): 0.25 nM
GI50 (SCaBER; [2]): 0.872 nM
IC50 (SCaBER; [3]): 1.59 nM
Cell Count Activity Area (G-402): 4.75
Relative cell count (%) Mean (G-402; 1.00E+00 microM): 25.8%
Relative cell count (%) Mean (G-402; 1.00E-01 microM): 28.4%
Relative cell count (%) Mean (G-402; 1.00E-02 microM): 40.5%
Relative cell count (%) Mean (G-402; 1.00E-03 microM): 63.7%
Relative cell count (%) Mean (G-402; 1.01E-04 microM): 100.0%
Relative cell count (%) Mean (G-402; 3.16E-01 microM): 27.5%
Relative cell count (%) Mean (G-402; 3.17E-02 microM): 36.6%
Relative cell count (%) Mean (G-402; 3.17E-03 microM): 52.6%
Relative cell count (%) Mean (G-402; 3.18E-04 microM): 86.8%
Relative cell count (%) Mean (G-402; 3.18E-05 microM): 97.8%
EC50 (G-402; [1]): 1.13 nM
GI50 (G-402; [2]): 1.51 nM
IC50 (G-402; [3]): 2.87 nM
Cell Count Activity Area (RL95-2): 3.36
Relative cell count (%) Mean (RL95-2; 1.00E+00 microM): 48.1%
Relative cell count (%) Mean (RL95-2; 1.00E-01 microM): 51.9%
Relative cell count (%) Mean (RL95-2; 1.00E-02 microM): 61.8%
Relative cell count (%) Mean (RL95-2; 1.00E-03 microM): 69.2%
Relative cell count (%) Mean (RL95-2; 1.01E-04 microM): 91.3%
Relative cell count (%) Mean (RL95-2; 3.16E-01 microM): 51.5%
Relative cell count (%) Mean (RL95-2; 3.17E-02 microM): 53.8%
Relative cell count (%) Mean (RL95-2; 3.17E-03 microM): 62.6%
Relative cell count (%) Mean (RL95-2; 3.18E-04 microM): 78.8%
Relative cell count (%) Mean (RL95-2; 3.18E-05 microM): 95.1%
EC50 (RL95-2; [1]): 0.645 nM
GI50 (RL95-2; [2]): 1.18 nM
IC50 (RL95-2; [3]): > 1000 nM
EC50 (SK-UT-1; Homo sapiens, SK-UT-1, read-out: Cell Count EC50): 1.51 nM
GI50 (SK-UT-1; Homo sapiens, SK-UT-1, read-out: Cell Count GI50): 11.3 nM
IC50 (SK-UT-1; Homo sapiens, SK-UT-1, read-out: Cell Count IC50): 38.2 nM
Cell Count Activity Area (SK-UT-1; SK-UT-1): 3.48
Relative cell count (%) Mean (SK-UT-1; SK-UT-1, 1.00E+00 microM): 47.0%
Relative cell count (%) Mean (SK-UT-1; SK-UT-1, 1.00E-01 microM): 59.0%
Relative cell count (%) Mean (SK-UT-1; SK-UT-1, 1.00E-02 microM): 76.1%
Relative cell count (%) Mean (SK-UT-1; SK-UT-1, 1.00E-03 microM): 82.8%
Relative cell count (%) Mean (SK-UT-1; SK-UT-1, 1.01E-04 microM): 114.4%
Relative cell count (%) Mean (SK-UT-1; SK-UT-1, 3.16E-01 microM): 53.3%
Relative cell count (%) Mean (SK-UT-1; SK-UT-1, 3.17E-02 microM): 61.4%
Relative cell count (%) Mean (SK-UT-1; SK-UT-1, 3.17E-03 microM): 75.4%
Relative cell count (%) Mean (SK-UT-1; SK-UT-1, 3.18E-04 microM): 96.2%
Relative cell count (%) Mean (SK-UT-1; SK-UT-1, 3.18E-05 microM): 116.9%
